What was measured:
[1] = mice; compared with testosterone administered by the same route; cited from earlier work
[2] = orchiectomised male rats

C[C@]12CC[C@H]3[C@@H](CCC4=CC(=O)CC[C@@]43C)[C@@H]1CC[C@@H]2O[C@@H]1O[C@H](CO)[C@@H](O)[C@H](O)[C@H]1O [testosterone glucoside, Testosterone-17-β-1′-β′-D-glucopyranose]
biological activity in vivo [1]: very little activity in vivo, and certainly less than testosterone
bioavailability, oral ([2]; 1.56 mg orally daily for 6 days, serum testosterone 4 hours after final dose): bioavailable when given orally
metabolism to testosterone ([2]; oral or intramuscular, daily for 6 days): readily metabolised to testosterone

Reference: patent US6916791B2, “Androgen derivatives and uses thereof” (Strakan Limited, priority 1999, dated 2005)
